The nature of the data set: solvent given as SMILES.

We go through 44 compounds from the Deep4Chem optical property database.

For `CC1(C)CC(/C=C/c2ccc(-n3ccnc3)cc2)=CC(=C(C#N)C#N)C1`, the absorption maximum runs as follows: (in C1CCOC1) 398 nm; (in CC#N) 390 nm; (in CCO) 391 nm; (in CCOC(C)=O) 390 nm; (in ClCCl) 393 nm; (in c1ccccc1) 397 nm.
On to `CCN(CC)c1ccc2c(c1)oc(=O)c1c(=O)oc3c(C)c4oc(=O)c5c(=O)oc6cc(N(CC)CC)ccc6c5c4cc3c12`, for which the absorption maximum came out at 463 nm (in CS(C)=O) and 458 nm (in ClCCl).
As for `CC(C)c1ccc(-c2nc(-c3ccccc3)c3ccccn23)cc1`, the absorption maximum (in CC#N) stood at 380 nm.
For the compound `CCCCCCC1(CCCCCC)c2cc(-c3ccc(-c4ccc(-c5ccc(-c6ccc7c(c6)C(CCCCCC)(CCCCCC)c6cc(-n8c9ccccc9c9ccccc98)ccc6-7)s5)c5nsnc45)s3)ccc2-c2ccc(-n3c4ccccc4c4ccccc43)cc21`, the absorption maximum (in ClCCl) is given as 513 nm.
For the setting “in Cc1ccccc1”, `c1ccc(-c2nc(-c3ccccc3)c(-c3ccccc3)o2)cc1` yielded an absorption maximum of 311 nm.
`N#Cc1nc(N(Cc2ccccc2I)Cc2ccccc2I)c(C#N)nc1N(Cc1ccccc1I)Cc1ccccc1I`: the absorption maximum (in ClC(Cl)Cl) came to 487 nm.
Turning to `CC1=N/C(=C\c2cc(N(C)C)ccc2C#N)C(=O)N1C`, the absorption maximum runs as follows: (in C1CCOC1) 363 nm; (in CC#N) 361 nm; (in CCCCCC) 359 nm.
For `CC(C)(C)c1ccc2c(c1)c1cc(C(C)(C)C)ccc1n2-c1ccc(-c2nc3cc(C#N)c(C#N)cc3nc2-c2ccc(-n3c4ccc(C(C)(C)C)cc4c4cc(C(C)(C)C)ccc43)cc2)cc1`, under “in Cc1ccccc1”, the absorption maximum stood at 443 nm.
In turn, `O=c1oc2ccccc2cc1-c1ccc(-c2ccc(-c3cc4ccccc4oc3=O)cc2)cc1` gave an absorption maximum (in ClCCl) of 341 nm.
Same read-out and setting: in the case of `CC1(C)C2=C(c3ccccc31)S(=O)(=O)c1ccccc12` it was 355 nm.
Still for that read-out and setting: in the case of `CCn1c2cc(-c3ccc(-c4cccs4)s3)ccc2c2ccc(-c3ccc(-c4cccs4)s3)cc21` it was 399 nm.
`COc1nc(Nc2ccc3c4c(cccc24)C(=O)c2ccccc2-3)nc(OC)n1`: the absorption maximum was 413.91 nm (in CC#N); 421.94 nm (in CC(C)O); 421.94 nm (in CCCCOCCCC); 418.94 nm (in CCOC(C)=O); 419.99 nm (in CO); 426.99 nm (in Cc1ccccc1).
`C(=C\c1ccc(-c2ccccc2)cc1)/c1ccc(Oc2ccc3ccccc3c2-c2c(Oc3ccc(/C=C/c4ccc(-c5ccccc5)cc4)cc3)ccc3ccccc23)cc1`: where the note is “in ClCCl”, the absorption maximum is 328 nm.
The same measure, in the same setting: under `CC(C)(C)c1cc(-c2c3cc(c(-c4cc(C(C)(C)C)cc(C(C)(C)C)c4)c4ccc([nH]4)c(-c4ccc(Br)cc4)c4nc(c(-c5ccc(Br)cc5)c5ccc2[nH]5)C=C4)N=C3)cc(C(C)(C)C)c1` stands 726 nm.
Turning to `c1ccc(N(c2ccccc2)c2ccc(-c3ccc(-c4ccc(-c5ccc(-c6ccc(N(c7ccccc7)c7ccccc7)cc6)s5)c5nsnc45)s3)cc2)cc1`, the absorption maximum (in ClC(Cl)Cl) was determined as 530 nm.
Where the note is “in ClC(Cl)Cl”, `CC(C)(C)NC(=O)c1c([Si](C)(C)C)cc2ccc3cccc4ccc1c2c34` came in with an absorption maximum of 382 nm.
Regarding `CC1=CC2=Nc3nc(C)[n+](C)cc3CN2C=C1`, the absorption maximum runs as follows: (in CC#N) 403 nm; (in CCO) 398 nm; (in O) 392 nm.
In the case of `CCCCCCCCCCCCCCCC[n+]1ccc(/C=C/c2ccc(N(C)C)cc2)cc1`, the absorption maximum worked out at 463 nm (in C1COCCO1); 477 nm (in CC(C)=O); 481.2 nm (in CC(C)O); 454.6 nm (in CCCCCC); 487.1 nm (in CCCCO); 485.6 nm (in CCCO). In addition, the absorption maximum runs as follows: (in CCO) 484.9 nm; (in CN(C)C=O) 475.3 nm; (in CO) 480.2 nm; (in CS(C)=O) 479 nm; (in Cc1ccccc1) 474.8 nm; (in ClC(Cl)(Cl)Cl) 467.2 nm. Moreover, the absorption maximum (in ClC(Cl)Cl) turned out to be 493 nm, the absorption maximum (in ClCCl) is 515.2 nm and the absorption maximum (in c1ccccc1) was 476 nm.
For the compound `CCC1=C(C)C2=C(C)c3c(C)c(-c4csc(N5CCOCC5)n4)c(C)n3[B-](F)(F)[N+]2=C1C`, the absorption maximum was 524 nm (in C1CCOC1); 524 nm (in C1COCCO1); 516 nm (in CC#N); 518 nm (in CC(C)O); 516 nm (in CCO); 520 nm (in CCOC(C)=O). Further, the absorption maximum (in CN(C)C=O) was found to be 524 nm; the absorption maximum (in CO) came out at 514 nm; the absorption maximum (in CS(C)=O) came to 521 nm; the absorption maximum (in Cc1ccccc1) worked out at 527 nm; the absorption maximum (in ClC(Cl)Cl) amounted to 523 nm; the absorption maximum (in ClCCl) is listed as 522 nm.
Regarding `CC[n+]1c(/C=C/c2c([O-])ccc3ccc(=O)oc23)sc2ccccc21`, the absorption maximum (in C1CCOC1) is reported as 607.14 nm; the absorption maximum (in CC#N) was found to be 579.15 nm; the absorption maximum (in CC(C)=O) amounted to 590.56 nm; the absorption maximum (in CO) is recorded as 519.07 nm; the absorption maximum (in CS(C)=O) amounted to 581.28 nm; the absorption maximum (in Cc1ccccc1) was determined as 623.57 nm. For the same compound, the absorption maximum by setting is: (in ClC(Cl)Cl) 593.91 nm; (in ClCCl) 597.56 nm; (in O) 492.76 nm.
Turning to `O=Cc1cc(C=O)c2ccc3c(N4CCCCC4)cc(N4CCCCC4)c4ccc1c2c43`, the absorption maximum by setting is: (in C1COCCO1) 512 nm; (in CC#N) 525 nm; (in CC(C)=O) 521 nm; (in CCCCCC) 498 nm; (in CCO) 522 nm; (in CCOC(C)=O) 514 nm. Further, the absorption maximum runs as follows: (in CO) 523 nm; (in CS(C)=O) 535 nm; (in Cc1ccccc1) 516 nm; (in ClCCl) 534 nm.
Compound `N#Cc1c(N2CCCCC2)cc(-c2ccc3ccc4cccc5ccc2c3c45)c2c1-c1ccccc1C2` returned an absorption maximum (in C1CCOC1) of 346 nm.
Consider `B1C=Cc2ccc3ccccc3c2N1`, for which the absorption maximum (in C1CCCCC1) is given as 351 nm.
`CCOC(=O)c1c(-c2c(Cl)c3ccccc3oc2=O)nn(-c2ccc(Br)cc2)c1C(=O)OCC` registered an absorption maximum (in ClCCl) of 322 nm.
As to `O=[N+]([O-])c1ccc[nH]1`, the absorption maximum by setting is: (in CO) 336 nm; (in O) 350 nm.
For the setting “in c1cc(-c2cccc(-n3c4ccccc4c4ccccc43)c2)cc(-n2c3ccccc3c3ccccc32)c1”, `c1ccc(-c2nc(-c3ccccc3)nc(-c3ccc(-c4ccc5c(c4)C4(c6ccccc6-c6ccccc64)c4ccccc4N5c4ccccc4)cc3)n2)cc1` showed an absorption maximum of 387.78 nm.
On to `c1ccc(-c2nc3ccccc3nc2-c2cc(-c3nc4ccccc4nc3-c3ccccc3)cc(-n3c4ccccc4c4ccccc43)c2)cc1`, for which the absorption maximum (in Cc1ccccc1) is reported as 340 nm.
As for `N#Cc1cc(/C=C/c2ccc(/C=C/c3ccc(N(c4ccccc4)c4ccccc4)cc3)c(C#N)c2)ccc1/C=C/c1ccc(N(c2ccccc2)c2ccccc2)cc1`, the absorption maximum (in ClCCl) was 429 nm.
With `COc1ccc(/C=C/C2=CC(/C=C/c3ccc(OC)c4ccccc34)=[O+][B-](F)(F)O2)c2ccccc12`, the absorption maximum is, setting by setting: (in CC#N) 530 nm; (in CC(C)=O) 532 nm; (in CCOC(C)=O) 524 nm; (in CCOCC) 516 nm; (in ClC(Cl)(Cl)Cl) 523 nm; (in ClCCl) 536 nm.
`COc1ccc2c3c(c4ccc(C(C)(C)C)cc4c2c1)=C(c1cc(OC)c(OC)c(OC)c1)C1=Nc2c(-c4cc(OC)c(OC)c(OC)c4)c4c5ccc(C(C)(C)C)cc5c5cc(OC)ccc5c4n2[B-](F)(F)[N+]=31` showed an absorption maximum (in Cc1ccccc1) of 797 nm.
Consider `CN(C)c1ccc(/C=C(\C#N)c2nc3ccccc3s2)cc1`, for which the absorption maximum (in C1CCCCC1) came to 430 nm and the absorption maximum (in CO) came out at 450 nm.
For the setting “in ClCCl”, `CCCN1c2ccc(C#CC3=C4C=CC=[N+]4[B-](F)(F)n4cccc43)cc2Sc2cc(C#CC3=C4C=CC=[N+]4[B-](F)(F)n4cccc43)ccc21` yielded an absorption maximum of 542 nm.
Still for that read-out and setting: in the case of `Cc1ccc(O)c(-c2nc(C)c3n2CCCC3)c1` it was 321 nm.
In turn, `Cc1ccc(-c2ccc(/C=C/c3ccc(F)cc3)cn2)nc1` yielded an absorption maximum (in CC#N) of 334 nm.
`O=C1NC(=O)c2ccc(N3CCOCC3)c3cccc1c23` showed an absorption maximum (in ClC(Cl)Cl) of 394 nm.
Regarding `CCCCOC(=O)c1cc(Cl)c2c3c(Cl)cc4c5c(cc(Cl)c(c6c(Cl)cc(C(=O)OCCCC)c1c26)c53)C(=O)N(c1c(C(C)C)cccc1C(C)C)C4=O`, under “in Cc1ccccc1”, the absorption maximum amounted to 496 nm.
The compound `CN(C)c1ccc(C#Cc2ccc(C#Cc3ccc(C#Cc4ccccc4C#N)cc3C#N)cc2C#N)cc1` had an absorption maximum (in C1CCOC1) of 422 nm; an absorption maximum (in CC#N) of 413 nm; an absorption maximum (in CN(C)C=O) of 426 nm; an absorption maximum (in ClC(Cl)Cl) of 425 nm; an absorption maximum (in c1ccccc1) of 426 nm.
`COc1ccc(-c2csc(/C(C#N)=C/c3c(Cl)cccc3Cl)n2)cc1`: for the setting “in CC#N”, the absorption maximum stood at 360 nm.
Where the note is “in ClCCl”, `N#Cc1ccc(-n2c(-c3ccc(-c4ccc(-n5c6ccccc6c6ccccc65)cc4)s3)nc3c4ccccc4c4ccccc4c32)c2ccccc12` registered an absorption maximum of 301 nm.
Compound `COc1ccc(C2C3=C(CCCC3=O)Nc3c2c(=O)oc2ccccc32)cc1` (configuration not stated) returned an absorption maximum (in CS(C)=O) of 361 nm.
With `c1ccc(-c2nnc(-c3cc(-c4nnc(-c5ccccc5)o4)c(-n4c5ccccc5c5ccccc54)cc3-n3c4ccccc4c4ccccc43)o2)cc1`, the absorption maximum (in Cc1ccccc1) is recorded as 370 nm.
As for `CCOC(=O)c1c(-c2cc3ccccc3oc2=O)nn(-c2ccc(Cl)cc2)c1C(=O)OCC`, the absorption maximum (in ClCCl) was 323 nm.
`Cc1nc2c(ccc3ccccc32)oc1=O`: for the setting “in c1ccccc1”, the absorption maximum worked out at 364 nm.
As to `CC1(C)OB(c2cc3ccc4cccc5ccc(c2)c3c45)OC1(C)C`, the absorption maximum (in Cc1ccccc1) is given as 385 nm.
